According to ChEMBL document CHEMBL1201862, “PubChem BioAssay data set” (2004):
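Five compound concentrations were applied to cells in 96-well plates for 48 hours; endpoints were derived by simple linear interpolation of the resulting dose-response curve. The concentration for 50% growth inhibition is given as GI50.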 Calls of active or inactive are those of the source. Rule as the data show it: active = GI50 up to about 1.1 µM and inactive = higher.

Experiments:
Experiment in all cases: NCI-60 cell line screen, 48 h
NCI/ADR-RES = tested on: NCI/ADR-RES
SK-MEL-28 = tested on: SK-MEL-28
SF-295 = tested on: SF-295
NCI-H460 = tested on: NCI-H460
UACC-62 = tested on: UACC-62
NCI-H522 = tested on: NCI-H522
UO-31 = tested on: UO-31
IGROV-1 = tested on: IGROV-1
MCF7 = tested on: MCF7
HT-29 = tested on: HT-29
HCT-15 = tested on: HCT-15
786-0 = tested on: 786-0
M14 = tested on: M14
A549 = tested on: A549
OVCAR-5 = tested on: OVCAR-5
SK-MEL-2 = tested on: SK-MEL-2
T47D = tested on: T47D
LOX IMVI = tested on: LOX IMVI
SN12C = tested on: SN12C

| Compound | GI50 (NCI/ADR-RES) | GI50 (SK-MEL-28) | GI50 (SF-295) | GI50 (NCI-H460) | GI50 (UACC-62) | GI50 (NCI-H522) | GI50 (UO-31) | GI50 (IGROV-1) | GI50 (MCF7) | GI50 (HT-29) | GI50 (HCT-15) | GI50 (786-0) | GI50 (M14) | GI50 (A549) | GI50 (OVCAR-5) | GI50 (SK-MEL-2) | GI50 (T47D) | GI50 (LOX IMVI) | GI50 (SN12C) |
| --- | --- | --- | --- | --- | --- | --- | --- | --- | --- | --- | --- | --- | --- | --- | --- | --- | --- | --- | --- |
| C/C=C\C(CC(=O)NCCC1CN(S(=O)(=O)c2ccc(C)cc2)c2ccccc21)CC(=O)OC (stereo not given) | > 100 µM (inactive) | > 100 µM (inactive) | > 100 µM (inactive) | > 100 µM (inactive) | > 100 µM (inactive) | > 100 µM (inactive) | > 100 µM (inactive) | > 100 µM (inactive) | > 100 µM (inactive) | > 100 µM (inactive) | > 100 µM | > 100 µM (inactive) | > 100 µM (inactive) | > 100 µM (inactive) | > 100 µM (inactive) | > 100 µM (inactive) | > 100 µM (inactive) | – | – |
| COc1ccc2nc3cccc([N+](=O)[O-])c3c(NCCC(=O)O)c2c1 | > 10 µM (inactive) | > 10 µM (inactive) | > 10 µM (inactive) | > 10 µM (inactive) | > 10 µM (inactive) | 4.56 µM (inactive) | – | > 10 µM (inactive) | 5.78 µM (inactive) | > 10 µM (inactive) | > 10 µM | > 10 µM (inactive) | > 10 µM (inactive) | > 10 µM (inactive) | > 10 µM (inactive) | > 10 µM (inactive) | 7.5 µM (inactive) | > 10 µM (inactive) | > 10 µM (inactive) |
| CCOC(=O)C(O)(C(=O)OCC)c1cc(C(C)(C)C)c(O)c(C(C)(C)C)c1 | 18.6 µM (inactive) | 31.8 µM (inactive) | 22.5 µM (inactive) | – | 22.9 µM (inactive) | 36.9 µM (inactive) | 52.2 µM (inactive) | 45 µM (inactive) | 40.4 µM (inactive) | 28.1 µM (inactive) | 42 µM | 51.4 µM (inactive) | 39 µM (inactive) | 54.3 µM (inactive) | 41.2 µM (inactive) | 27.7 µM (inactive) | 62.2 µM (inactive) | 37.2 µM (inactive) | 43.4 µM (inactive) |
| O=C(NC(CCCCN1C(=O)c2ccccc2C1=O)P(=O)(Oc1ccccc1)Oc1ccccc1)OCc1ccccc1 (stereo not given) | > 100 µM (inactive) | > 100 µM (inactive) | > 100 µM (inactive) | > 100 µM (inactive) | > 100 µM (inactive) | 75 µM (inactive) | > 100 µM (inactive) | > 100 µM (inactive) | > 100 µM (inactive) | > 100 µM (inactive) | > 10 µM | > 100 µM (inactive) | > 100 µM (inactive) | > 100 µM (inactive) | > 100 µM (inactive) | > 100 µM (inactive) | > 100 µM (inactive) | – | > 100 µM (inactive) |
| C[C@@]12[C@H]3CC[C@@H]1[C@H](O)C(=O)N2CC3 | > 100 µM (inactive) | > 100 µM (inactive) | > 100 µM (inactive) | > 100 µM (inactive) | > 100 µM (inactive) | > 100 µM (inactive) | > 100 µM (inactive) | > 100 µM (inactive) | > 100 µM (inactive) | > 100 µM (inactive) | > 100 µM | > 100 µM (inactive) | > 100 µM (inactive) | > 100 µM (inactive) | > 100 µM (inactive) | > 100 µM (inactive) | > 100 µM (inactive) | > 100 µM (inactive) | – |
| COC(=O)CCCc1ccc2c(c1)CC1(C2)Cc2cc3c(cc2C1)CCCC3 | 47.6 µM (inactive) | – | 45.7 µM (inactive) | – | 21.1 µM (inactive) | 17.7 µM (inactive) | 86.7 µM (inactive) | 44.9 µM (inactive) | 44.6 µM (inactive) | 29.6 µM (inactive) | 14 µM | 43.9 µM (inactive) | 24.7 µM (inactive) | 22.1 µM (inactive) | > 100 µM (inactive) | 22.6 µM (inactive) | 50.7 µM (inactive) | 30.3 µM (inactive) | 40.6 µM (inactive) |
| COc1cccc(CCNc2c(C#N)c3n(c4ccccc4[n+]3C)c3ncccc23)c1 | 6.93 µM (inactive) | 20.2 µM (inactive) | 1.69 µM (inactive) | 1.34 µM (inactive) | 20.8 µM (inactive) | 4.16 µM (inactive) | 4.53 µM (inactive) | – | 1.52 µM (inactive) | 1.41 µM (inactive) | 1.75 µM | 1.76 µM (inactive) | 1.76 µM (inactive) | 1.82 µM (inactive) | 15.3 µM (inactive) | 21.4 µM (inactive) | 6.59 µM (inactive) | 1.74 µM (inactive) | 15.9 µM (inactive) |
| CC(=O)NC1C(OC(C)C(=O)NC(C)C(=O)NC(CCC(=O)NCCCCCNc2ccc([N+](=O)[O-])c3[nH]c4ccccc4c(=O)c23)C(N)=O)C(O)C(CO)OC1(C)OCc1ccccc1 (stereo not given) | > 100 µM (inactive) | – | > 100 µM (inactive) | 26.7 µM (inactive) | > 100 µM (inactive) | > 100 µM (inactive) | 50.4 µM (inactive) | 64.1 µM (inactive) | 73.3 µM (inactive) | 30.9 µM (inactive) | 73.8 µM | 38.7 µM (inactive) | > 100 µM (inactive) | 50.8 µM (inactive) | > 100 µM (inactive) | > 100 µM (inactive) | > 100 µM (inactive) | > 100 µM (inactive) | > 100 µM (inactive) |
| O=C1C(=CNc2ccccc2Cl)C(=O)N(c2ccccc2)C(=O)N1c1ccccc1 | > 100 µM (inactive) | – | > 100 µM (inactive) | > 100 µM (inactive) | > 100 µM (inactive) | > 100 µM (inactive) | > 100 µM (inactive) | > 100 µM (inactive) | > 100 µM (inactive) | > 100 µM (inactive) | > 100 µM | > 100 µM (inactive) | 92.7 µM (inactive) | > 100 µM (inactive) | > 100 µM (inactive) | 27.9 µM (inactive) | > 100 µM (inactive) | > 100 µM (inactive) | > 100 µM (inactive) |
| O=C1CCCc2cc3c(cc21)CC1(C3)Cc2ccc3c(c2C1)C(=O)CCC3 (stereo not given) | 6.25 µM (inactive) | 26.1 µM (inactive) | 18.5 µM (inactive) | 26.5 µM (inactive) | – | 20.9 µM (inactive) | 32.4 µM (inactive) | 20.5 µM (inactive) | 12.2 µM (inactive) | 16.3 µM (inactive) | 45.2 µM | 30.7 µM (inactive) | 12.7 µM (inactive) | 21.1 µM (inactive) | > 100 µM (inactive) | 24.2 µM (inactive) | 24.1 µM (inactive) | 11.7 µM (inactive) | 23.6 µM (inactive) |
| Cc1nc2c(sc3nc4ccccc4n32)c(=O)[nH]1 | > 100 µM (inactive) | > 100 µM (inactive) | > 100 µM (inactive) | – | > 100 µM (inactive) | > 100 µM (inactive) | > 100 µM (inactive) | > 100 µM (inactive) | > 100 µM (inactive) | – | > 100 µM | > 100 µM (inactive) | > 100 µM (inactive) | > 100 µM (inactive) | > 100 µM (inactive) | > 100 µM (inactive) | > 100 µM (inactive) | > 100 µM (inactive) | – |
| CCn1ncc2c(=O)n3ncn(-c4ccc(Br)cc4)c3nc21 | > 100 µM (inactive) | > 100 µM (inactive) | > 100 µM (inactive) | – | > 100 µM (inactive) | > 100 µM (inactive) | > 100 µM (inactive) | > 100 µM (inactive) | > 100 µM (inactive) | > 100 µM (inactive) | > 100 µM | > 100 µM (inactive) | > 100 µM (inactive) | > 100 µM (inactive) | > 100 µM (inactive) | > 100 µM (inactive) | > 100 µM (inactive) | – | > 100 µM (inactive) |
| C=C(C)[C@H]1C=C[C@@H](OC(C)=O)[C@@]2(COC(C)=O)[C@H](OC(=O)CCC)[C@H]3[C@@H](OC(C)=O)[C@@H](C)C[C@]3(O)C(=O)[C@@](C)(OC(C)=O)[C@H]12 | 42.5 µM (inactive) | 80 µM (inactive) | – | 21.2 µM (inactive) | 66.5 µM (inactive) | 56 µM (inactive) | 33.4 µM (inactive) | 32.1 µM (inactive) | 42.3 µM (inactive) | 38.7 µM (inactive) | 36.2 µM | 39.7 µM (inactive) | 31.8 µM (inactive) | 32.7 µM (inactive) | 60.4 µM (inactive) | 87.3 µM (inactive) | 27 µM (inactive) | 29.5 µM (inactive) | 36 µM (inactive) |
| O=c1ssc2ncccc12 | 32.6 µM (inactive) | 24.8 µM (inactive) | 33.5 µM (inactive) | 20.4 µM (inactive) | 11.6 µM (inactive) | 7.8 µM (inactive) | 16.4 µM (inactive) | – | 13.8 µM (inactive) | 23.6 µM (inactive) | 12.1 µM | 16.9 µM (inactive) | 17.9 µM (inactive) | 14.9 µM (inactive) | 26 µM (inactive) | 10.4 µM (inactive) | 46 µM (inactive) | 16.3 µM (inactive) | 15.1 µM (inactive) |
| CC(=O)CCN1CC2CN=NC2(C#N)C1 (stereo not given) | > 100 µM (inactive) | > 100 µM (inactive) | > 100 µM (inactive) | > 100 µM (inactive) | > 100 µM (inactive) | 1.79 µM (inactive) | > 100 µM (inactive) | > 100 µM (inactive) | 35.2 µM (inactive) | > 100 µM (inactive) | 69 µM | 36.6 µM (inactive) | – | > 100 µM (inactive) | > 100 µM (inactive) | > 100 µM (inactive) | 35.6 µM (inactive) | 49 µM (inactive) | > 100 µM (inactive) |
